Test results taken from US10988449B2, “Isoxazole derivatives as nuclear receptor agonists and uses thereof” (IL DONG PHARMACEUTICAL CO., LTD., priority 2017, dated 2021).

Target: T1, human FXR (Homo sapiens, UniProt Q96RI1)
T1 construct: expressed in transfected cells
T1 sequence (Q96RI1 1-486): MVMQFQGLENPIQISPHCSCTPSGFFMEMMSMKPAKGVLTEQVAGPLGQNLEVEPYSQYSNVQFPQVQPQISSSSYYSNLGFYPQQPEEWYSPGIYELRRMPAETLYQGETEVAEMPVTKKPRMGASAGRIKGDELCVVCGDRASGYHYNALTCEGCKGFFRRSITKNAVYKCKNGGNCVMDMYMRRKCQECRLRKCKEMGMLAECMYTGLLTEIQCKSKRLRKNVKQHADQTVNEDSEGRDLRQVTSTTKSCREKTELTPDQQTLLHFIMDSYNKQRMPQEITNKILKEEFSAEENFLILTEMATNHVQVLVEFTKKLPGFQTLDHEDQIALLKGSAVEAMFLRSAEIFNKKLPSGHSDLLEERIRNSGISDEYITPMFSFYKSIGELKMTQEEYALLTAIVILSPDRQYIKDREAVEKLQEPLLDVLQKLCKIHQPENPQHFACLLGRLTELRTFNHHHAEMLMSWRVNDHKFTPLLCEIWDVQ
Assay: FXR reporter assay (cellular FXR activities)
Type: cell-based
Conditions: for EC50: FXR reporter cells, 24 hours incubation, luciferase, read-out: Reporter Cell EC50; for Emax: read-out: Emax (%) (GW4064 Emax = 100%)
Description: FXR reporter assay was performed to measure cellular FXR activities of the compounds in the present invention. FXR reporter cells with high expression level of human FXR were seeded into 96-well cell culture plates, and incubated for 1-2 hours at 37° C. under 5% CO2 atmosphere. The invented compounds diluted in DMSO with various concentrations were added to the 96-well cell culture plates, and they were incubated for 24 hours at 37° C. under 5% CO2 atmosphere. After incubation, we calculate EC50 by using luciferase substrate.

| Structure (SMILES) | EC50 [nM] | Emax [%] |
| --- | --- | --- |
| CC(C)(O)Cn1ccc2c(C#Cc3ccc(OCc4c(-c5c(Cl)cccc5Cl)noc4C4CC4)cc3Cl)cc(C(=O)O)cc21 [Compound I-98, 4-((2-chloro-4-((5-cyclopropyl-3-(2,6-dichlorophenyl)isoxazol-4-yl)methoxy)phenyl)ethynyl)-1-(2-hydroxy-2-methylpropyl)-1H-indole-6-carboxylic acid] | 20 to 60 | > 100 |
| CN(C)c1ccc(C(=O)O)cc1C#Cc1ccc(OCc2c(-c3c(Cl)cccc3Cl)noc2C2CC2)cc1Cl [Compound I-26, 3-((2-chloro-4-((5-cyclopropyl-3-(2,6-dichlorophenyl)isoxazol-4-yl)methoxy)phenyl)ethynyl)-4-(dimethylamino)benzoic acid] | 200 to 1000 | > 100 |
| COc1c(N)cc(C#Cc2ccc(OCc3c(-c4c(Cl)cccc4Cl)noc3C3CC3)cc2Cl)cc1C(=O)O [Compound I-62, 3-amino-5-((2-chloro-4-((5-cyclopropyl-3-(2,6-dichlorophenyl)isoxazol-4-yl)methoxy)phenyl)ethynyl)-2-methoxybenzoic acid] | 60 to 200 | > 100 |
| CCNCc1cc(C#Cc2ccc(OCc3c(-c4c(Cl)cccc4Cl)noc3C3CC3)cc2Cl)cc(C(=O)O)c1 [Compound I-45, 3-((2-chloro-4-((5-cyclopropyl-3-(2,6-dichlorophenyl)isoxazol-4-yl)methoxy)phenyl)ethynyl)-5-((ethylamino)methyl)benzoic acid] | 200 to 1000 | 88 |
| O=C(O)c1cc(C#Cc2ccc(OCc3c(-c4c(Cl)cccc4Cl)noc3C3CC3)cc2Cl)c2nc[nH]c2c1 [Compound I-90, 4-((2-chloro-4-((5-cyclopropyl-3-(2,6-dichlorophenyl)isoxazol-4-yl)methoxy)phenyl)ethynyl)-1H-benzo[d]imidazole-6-carboxylic acid] | 200 to 1000 | 75 |
| O=Cc1cc(C#Cc2ccc(OCc3c(-c4c(Cl)cccc4Cl)noc3C3CC3)cc2Cl)cc(C(=O)O)c1 [Compound I-41, 3-((2-chloro-4-((5-cyclopropyl-3-(2,6-dichlorophenyl)isoxazol-4-yl)methoxy)phenyl)ethynyl)-5-formylbenzoic acid] | 20 to 60 | > 100 |
| O=C(O)c1cc(C#Cc2ccc(OCc3c(-c4c(Cl)cccc4Cl)noc3C3CC3)cc2Cl)ccc1F [Compound I-37, 5-((2-chloro-4-((5-cyclopropyl-3-(2,6-dichlorophenyl)isoxazol-4-yl)methoxy)phenyl)ethynyl)-2-fluorobenzoic acid] | 60 to 200 | 94 |
| O=C(Nc1cc(C#Cc2ccc(OCc3c(-c4c(Cl)cccc4Cl)noc3C3CC3)cc2Cl)cc(C(=O)O)c1)OCCO [Compound I-81, 3-((2-chloro-((5-cyclopropyl-3-(2,6-dichlorophenyl)isoxazol-4-yl)methoxy)phenyl)ethynyl)-5-(((2-hydroxyethoxy)carbonyl)amino)benzoic acid] | 200 to 1000 | > 100 |
| O=C(O)c1cc(C#Cc2ccc(OCc3c(-c4c(Cl)cccc4Cl)noc3C3CC3)cc2Cl)cc(CN2CCC2)c1 [Compound I-43, 3-(azetidin-1-ylmethyl)-5-((2-chloro-4-((5-cyclopropyl-3-(2,6-dichlorophenyl)isoxazol-4-yl)methoxy)phenyl)ethynyl)benzoic acid] | 60 to 200 | > 100 |
| O=C(O)c1cc(C#Cc2ccc(OCc3c(-c4c(Cl)cccc4Cl)noc3C3CC3)cc2Cl)c2ccn(Cc3ccncc3)c2c1 [Compound I-94, 4-((2-chloro-4-((5-cyclopropyl-3-(2,6-dichlorophenyl)isoxazol-4-yl)methoxy)phenyl)ethynyl)-1-(pyridin-4-ylmethyl)-1H-indole-6-carboxylic acid] | 60 to 200 | > 100 |
| CCCCc1nc2cc(C#Cc3ccc(OCc4c(-c5c(Cl)cccc5Cl)noc4C4CC4)cc3Cl)cc(C(=O)O)c2o1 [Compound I-111, 2-butyl-5-((2-chloro-4-((5-cyclopropyl-3-(2,6-dichlorophenyl)isoxazol-4-yl)methoxy)phenyl)ethynyl)benzo[d]oxazole-7-carboxylic acid] | 20 to 60 | 98 |
| COC(=O)c1cccc(C#Cc2ccc(OCc3c(-c4c(Cl)cccc4Cl)noc3C3CC3)cc2Cl)c1 [Compound I-7, methyl 3-((2-chloro-4-((5-cyclopropyl-3-(2,6-dichlorophenyl)isoxazol-4-yl)methoxy)phenyl)ethynyl)benzoate] | > 1000 | 85 |
| CCc1cc(C#Cc2ccc(OCc3c(-c4c(Cl)cccc4Cl)noc3C3CC3)cc2Cl)cc(C(=O)O)c1 [Compound I-65, 3-((2-chloro-4-((5-cyclopropyl-3-(2,6-dichlorophenyl)isoxazol-4-yl)methoxy)phenyl)ethynyl)-5-ethylbenzoic acid] | 60 to 200 | 92 |
| CN(C)Cc1cc(C#Cc2ccc(OCc3c(-c4c(Cl)cccc4Cl)noc3C3CC3)cc2Cl)cc(C(=O)O)c1 [Compound I-49, 3-((2-chloro-4-((5-cyclopropyl-3-(2,6-dichlorophenyl)isoxazol-4-yl)methoxy)phenyl)ethynyl)-5-((dimethylamino)methyl)benzoic acid] | 20 to 60 | > 100 |
| O=C(O)c1cccc(C#Cc2ccc(OCc3c(-c4ccccc4OC(F)(F)F)noc3C3CC3)cc2Cl)c1 [Compound I-88, 3-((2-chloro-4-((5-cyclopropyl-3-(2-(trifluoromethoxy)phenyl)isoxazol-4-yl)methoxy)phenyl)ethynyl)benzoic acid] | 200 to 1000 | 97 |
| CS(=O)(=O)Nc1cc(C#Cc2ccc(OCc3c(-c4c(Cl)cccc4Cl)noc3C3CC3)cc2Cl)cc(C(=O)O)c1 [Compound I-86, 3-((2-chloro-4-((5-cyclopropyl-3-(2,6-dichlorophenyl)isoxazol-4-yl)methoxy)phenyl)ethynyl)-5-(methylsulfonamido)benzoic acid] | 60 to 200 | 100 |
| Cc1c(N)cc(C#Cc2ccc(OCc3c(-c4c(Cl)cccc4Cl)noc3C3CC3)cc2Cl)cc1C(=O)O [Compound I-71, 3-amino-5-((2-chloro-4-((5-cyclopropyl-3-(2,6-dichlorophenyl)isoxazol-4-yl)methoxy)phenyl)ethynyl)-2-methylbenzoic acid] | 200 to 1000 | > 100 |
| CCc1nc2cc(C#Cc3ccc(OCc4c(-c5c(Cl)cccc5Cl)noc4C4CC4)cc3Cl)cc(C(=O)O)c2o1 [Compound I-104, 5-((2-chloro-4-((5-cyclopropyl-3-(2,6-dichlorophenyl)isoxazol-4-yl)methoxy)phenyl)ethynyl)-2-ethylbenzo[d]oxazole-7-carboxylic acid] | ≤ 20 | 94 |
| CCCc1nc2c(C(=O)O)cc(C#Cc3ccc(OCc4c(-c5c(Cl)cccc5Cl)noc4C4CC4)cc3Cl)cc2o1 [Compound I-114, 6 ((2-chloro-((5-cyclopropyl-3-(2,6-dichlorophenyl)isoxazol-4-yl)methoxy)phenyl)ethynyl)-2-propylbenzo[d]oxazole-4-carboxylic acid] | 20 to 60 | > 100 |
| Cc1nc2cc(C#Cc3ccc(OCc4c(-c5c(Cl)cccc5Cl)noc4C4CC4)cc3Cl)cc(C(=O)O)c2nc1C [Compound I-109, 7-((2-chloro-4-((5-cyclopropyl-3-(2,6-dichlorophenyl)isoxazol-4-yl)methoxy)phenyl)ethynyl)-2,3-dimethylquinoxaline-5-carboxylic acid] | 20 to 60 | 100 |
| O=C(O)c1cccc(C#Cc2ccc(OCc3c(-c4c(Cl)cccc4Cl)noc3C3CC3)cc2Cl)n1 [Compound I-19, 6-((2-chloro-4-((5-cyclopropyl-3-(2,6-dichlorophenyl)isoxazol-4-yl)methoxy)phenyl)ethynyl)picolinic acid] | ≤ 20 | 99 |
| COc1c(N)cc(C(=O)O)cc1C#Cc1ccc(OCc2c(-c3c(Cl)cccc3Cl)noc2C2CC2)cc1Cl [Compound I-61, 3-amino-5-((2-chloro-4-((5-cyclopropyl-3-(2,6-dichlorophenyl)isoxazol-4-yl)methoxy)phenyl)ethynyl)-4-methoxybenzoic acid] | 60 to 200 | 95 |
| O=C(O)c1cc(C#Cc2ccc(OCc3c(-c4c(Cl)cccc4Cl)noc3C3CC3)cc2Cl)ccc1Cl [Compound I-29, 2-chloro-5-((2-chloro-4-((5-cyclopropyl-3-(2,6-dichlorophenyl)isoxazol-4-yl)methoxy)phenyl)ethynyl)benzoic acid] | 60 to 200 | 93 |
| CC(C)c1cc(C#Cc2ccc(OCc3c(-c4c(Cl)cccc4Cl)noc3C3CC3)cc2Cl)cc(C(=O)O)c1 [Compound I-66, 3-((2-chloro-4-((5-cyclopropyl-3-(2,6-dichlorophenyl)isoxazol-4-yl)methoxy)phenyl)ethynyl)-5-isopropylbenzoic acid] | 60 to 200 | 92 |
| O=C(O)c1cc(C#Cc2ccc(OCc3c(-c4c(Cl)cccc4Cl)noc3C3CC3)cc2Cl)cc2[nH]ccc12 [Compound I-101, 6-((2-chloro-4-((5-cyclopropyl-3-(2,6-dichlorophenyl)isoxazol-4-yl)methoxy)phenyl)ethynyl)-1H-indole-4-carboxylic acid] | ≤ 20 | 97 |
